# Where two headings read alike, the source gives them in different places.
# How the values were obtained:
# CYP3A4 = CYP3A4 (Homo sapiens, UniProt P08684); test: Loss of parent drug as catalyzed by CYPs; type: in vitro ADME; conditions: in vitro
# hepatocytes = test: In vitro metabolism in hepatocytes with 14C-labeled drug; type: in vitro ADME, mouse, rat, dog, rabbit, monkey, and human
# [1] = Metabolism in plasma, bile, and urine; type: in vivo; conditions: rats, dogs, and monkeys; preliminary evaluations
# CYP enzymes = test: Nonclinical CYP interaction studies; type: in vitro ADME
# GPVI [2] = system: GPVI
# EGFR = EGFR (Homo sapiens, UniProt P00533); test: EGF receptor phosphorylation in A431 cells
# EGFR, sequence (P00533 25-1210): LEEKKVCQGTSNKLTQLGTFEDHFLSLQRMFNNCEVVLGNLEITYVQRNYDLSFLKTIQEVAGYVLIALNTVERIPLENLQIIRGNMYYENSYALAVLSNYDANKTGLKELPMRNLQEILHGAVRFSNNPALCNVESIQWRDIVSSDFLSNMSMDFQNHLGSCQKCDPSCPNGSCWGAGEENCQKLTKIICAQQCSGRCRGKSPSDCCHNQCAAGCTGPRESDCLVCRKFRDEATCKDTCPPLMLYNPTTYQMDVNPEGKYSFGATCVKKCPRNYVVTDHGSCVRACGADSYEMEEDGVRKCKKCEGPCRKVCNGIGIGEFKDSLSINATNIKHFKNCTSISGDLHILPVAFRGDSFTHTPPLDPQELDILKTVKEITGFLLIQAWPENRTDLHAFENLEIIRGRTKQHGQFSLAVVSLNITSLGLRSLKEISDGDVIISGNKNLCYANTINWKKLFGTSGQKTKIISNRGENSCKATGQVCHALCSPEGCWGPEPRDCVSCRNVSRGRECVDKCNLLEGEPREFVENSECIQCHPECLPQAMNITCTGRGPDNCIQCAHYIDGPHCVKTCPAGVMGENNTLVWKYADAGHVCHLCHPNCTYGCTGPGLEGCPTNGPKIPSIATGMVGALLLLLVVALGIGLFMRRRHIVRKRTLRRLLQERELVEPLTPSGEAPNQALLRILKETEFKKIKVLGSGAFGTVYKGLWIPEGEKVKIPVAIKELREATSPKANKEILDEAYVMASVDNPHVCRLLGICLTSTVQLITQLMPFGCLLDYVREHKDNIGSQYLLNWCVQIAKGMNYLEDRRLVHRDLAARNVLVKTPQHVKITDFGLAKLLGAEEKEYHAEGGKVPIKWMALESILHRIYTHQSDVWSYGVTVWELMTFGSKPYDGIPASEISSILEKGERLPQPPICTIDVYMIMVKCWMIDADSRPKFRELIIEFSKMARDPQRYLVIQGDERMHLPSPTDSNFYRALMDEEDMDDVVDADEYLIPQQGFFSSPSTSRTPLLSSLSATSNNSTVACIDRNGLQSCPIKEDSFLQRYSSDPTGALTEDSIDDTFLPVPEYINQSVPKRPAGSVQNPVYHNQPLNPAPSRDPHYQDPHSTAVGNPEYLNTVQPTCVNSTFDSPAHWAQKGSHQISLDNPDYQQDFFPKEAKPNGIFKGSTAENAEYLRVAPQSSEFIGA
# B cell receptor = test: Whole blood B cell receptor signalling assay (CD69 on CD19+ B cells); type: cell-based; conditions: whole blood of four healthy donors, 2 hours with compound, anti-human IgD 10 μg/mL for 18 hours, read-out: EC50, CD69 on gated CD19+ B cells
# BTK = biological target: T1, BTK (Mus musculus, UniProt P35991); test: Molecular probe assay of BTK occupancy in MDSCs of PDA mice; type: in vivo; conditions: 15 mg/kg BID; granulocytic and monocytic MDSC compartments; Day 8, 4 hours post dose
# T1 construct: MDSCs were purified from tumor bearing PDA mice; endogenous in cells; host or cells: granulocytic and monocytic MDSCs from PDA mice dosed in vivo
# T1 sequence (P35991 whole entry): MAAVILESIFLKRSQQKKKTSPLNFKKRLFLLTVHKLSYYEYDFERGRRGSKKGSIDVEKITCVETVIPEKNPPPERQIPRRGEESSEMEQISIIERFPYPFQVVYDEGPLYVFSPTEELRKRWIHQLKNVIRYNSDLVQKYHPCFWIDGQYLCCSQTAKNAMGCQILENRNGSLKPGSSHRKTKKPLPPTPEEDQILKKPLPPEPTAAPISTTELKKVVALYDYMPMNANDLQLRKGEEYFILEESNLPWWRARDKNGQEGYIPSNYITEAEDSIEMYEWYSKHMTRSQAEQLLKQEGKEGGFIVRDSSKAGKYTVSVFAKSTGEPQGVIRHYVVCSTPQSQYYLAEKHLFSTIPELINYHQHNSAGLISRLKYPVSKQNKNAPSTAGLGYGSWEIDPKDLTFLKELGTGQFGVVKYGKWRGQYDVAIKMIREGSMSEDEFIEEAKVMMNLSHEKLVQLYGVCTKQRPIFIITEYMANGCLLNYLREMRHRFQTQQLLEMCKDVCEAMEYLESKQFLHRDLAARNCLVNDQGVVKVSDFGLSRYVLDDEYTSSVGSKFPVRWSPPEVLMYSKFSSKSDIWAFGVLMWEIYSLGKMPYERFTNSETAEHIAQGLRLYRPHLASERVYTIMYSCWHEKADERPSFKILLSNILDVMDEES
# From the text: A molecular probe assay was used to calculate the percent irreversible occupancy of total BTK.
# NK cells [3] = test: NK cell degranulation/ADCC whole blood assay with obinutuzumab; type: cell-based, human; conditions: 1 hour pretreatment, MEC-1 opsonised with obinutuzumab 1 μg/mL, 4 hours
# Experimental: Degranulation in whole blood was performed as follows. […] Exponentially growing cells were used. On the day of the experiment, 8 mL of blood was drawn from a normal volunteer into a test tube containing desirudin to obtain a final concentration of 50 μg/mL. A white blood cell (WBC) count of whole blood was performed. […] The ibrutinib control and two blinded BTK inhibitors were diluted in X-VIVO 15 serum-free hematopoietic cell medium (Lonza Group, Ltd.) to concentrations of 200 μM, 20 μM and 2 μM. 170 μL aliquots of unmanipulated whole blood were incubated with 10 μL BTK inhibitors or X-VIVO 15 medium for one hour into a plate. […] The samples were placed in a 5% CO2 incubator for 4 hours at 37° C.
# After 4 hours, the samples were mixed gently and 50 μL aliquots were removed from each well and placed in fluorescence-activated cell sorting (FACS) test tubes. A 20 μL aliquot of anti-CD56-APC antibody and anti-CD107a-PE antibody was added. The samples were incubated for 20 minutes at room temperature in the dark. An aliquot of 2 mL of FACS lysing solution (BD Biosceinces) was added. The samples were again incubated for 5 minutes, and then centrifuged at 2000 rpm for 5 minutes. Supernatant was discarded and the cell pellet was resuspended in 500 μL of PBS. The samples were analyzed on the flow cytometer for CD107a^+ NK cells (CD56^+).
# [4] = system: 80 known pharmacologic targets such as G-protein-coupled receptors, nuclear receptors, proteases, and ion channels; test: Binding assays on 80 known pharmacologic targets; conditions: screened at 10 μM
# [5] = Glutathione binding and depletion in vitro; type: in vitro ADME
# CD8^+ T cells [6] = test: Cytotoxicity assay for CD8+ T cell function; type: cell-based; conditions: relative to vehicle
# [7] = system: KrasLA2 non-small cell lung cancer (NSCLC) model; test: KrasLA2 genetic tumor model of NSCLC; type: in vivo, mice; conditions: 15 mg/kg
# From the text: The model is designed to have sporadic expression in single cells of G12D mutant Kras off its own promoter triggered by spontaneous intrachromosomal recombination. Johnson, et al. Nature 2001, 410, 1111-16. While the mutant Kras protein is expressed in a few cells in all tissues, tumor development is seen only in the lung at high penetrance.
# [8] = system: human platelet-mediated thrombus formation; test: In vivo human thrombus formation in VWF HA1 mice (laser injury); conditions: human platelets preincubated with inhibitor, laser-induced injury
# [9] = system: BCR activation markers CD69 and CD86; test: In vivo potency, BCR activation markers after oral gavage; conditions: mice, 3 hours post-dose, BCR stimulated with IgM
# Experimental: Mice were gavaged at increasing drug concentration and sacrificed at one time point (3 hours post-dose). BCR is stimulated with IgM and the expression of activation markers CD69 and CD86 are monitored by flow cytometry to determine ECovalues.
# CD86 and CD69 are cell surface proteins that are BCR activation markers. […] BCR was stimulated with IgM and the expression of activation marker CD69 and CD86 are monitored by flow cytometry to determine EC50 values.
# GPVI [10] = test: GPVI platelet aggregation
# CD8^+ T cells [11] = test: IFN-γ level measurements for CD8+ T cell function; type: cell-based; conditions: relative to vehicle
# NK cells [12] = test: Rituximab ADCC mediated by NK cells; type: cell-based
# [13] = within the tested dose range (through 840 mg); cited from earlier work
# CYP3A4, sequence (P08684 whole entry): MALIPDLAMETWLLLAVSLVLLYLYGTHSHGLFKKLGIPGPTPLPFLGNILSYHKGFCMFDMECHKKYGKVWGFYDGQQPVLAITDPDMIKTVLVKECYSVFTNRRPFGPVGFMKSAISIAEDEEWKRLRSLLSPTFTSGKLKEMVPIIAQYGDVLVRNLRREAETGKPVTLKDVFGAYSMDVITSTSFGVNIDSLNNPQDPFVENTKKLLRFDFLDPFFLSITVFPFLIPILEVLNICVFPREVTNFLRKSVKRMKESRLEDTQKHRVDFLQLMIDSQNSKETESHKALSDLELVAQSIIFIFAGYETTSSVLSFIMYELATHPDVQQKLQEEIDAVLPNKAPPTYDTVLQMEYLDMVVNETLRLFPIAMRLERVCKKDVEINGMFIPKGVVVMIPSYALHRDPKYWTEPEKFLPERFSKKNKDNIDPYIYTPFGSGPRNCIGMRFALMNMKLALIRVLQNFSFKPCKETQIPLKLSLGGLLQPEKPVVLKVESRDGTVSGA
compound,measurement,setting,value
"CC#CC(=O)N1CCC[C@H]1c1nc(-c2ccc(C(=O)Nc3ccccn3)cc2)c2c(N)nccn12 [Formula (2), (S)-4-(8-amino-3-(1-(but-2-ynoyl)pyrrolidin-2-yl)imidazo[1,5-a]pyrazin-1-yl)-N-(pyridin-2-yl)benzamide]",CYP responsible for metabolism,CYP3A4,metabolized by CYP3A4
same,unique human metabolite,hepatocytes; hepatocytes of six species,No unique human metabolite was identified
same,metabolites in hepatocytes,"hepatocytes; mouse, rat, dog, rabbit, monkey, and human hepatocytes, 14C-labeled drug",two mono-oxidized metabolites and a glutathione conjugate
same,"metabolic processes in plasma, bile, and urine",[1],"metabolic processes of oxidation, glutathione binding, and hydrolysis"
same,potential for CYP-mediated drug-drug interactions,CYP enzymes,very unlikely to cause clinical drug-drug interactions
same,inhibition of GPVI platelet aggregation,GPVI [2],does not
same,inhibition of in vitro EGFR phosphorylation,"EGFR; 10 μM, A431 human epidermoid cancer cell line",no inhibition
same,inhibition at 10 µM,"EGFR; A-431, read-out: EGF-induced p-EGFR inhibition",7%
same,EC50,B cell receptor,8.2 nM
same,irreversible occupancy of total BTK in MDSCs,BTK,Complete BTK occupancy
same,"effect on CD56+/CD107a+ NK cells, obinutuzumab-stimulated degranulation",NK cells [3],minimal effect
same,activity in binding assays with 80 known pharmacologic targets,[4],significant activity only against the A3 adenosine receptor
same,glutathione binding and depletion,[5],binds to glutathione but does not deplete glutathione
same,CD8+ T cell function as measured by % cytotoxicity,CD8^+ T cells [6],no effect
same,"effects on TAMs, MDSCs, Tregs, and CD8+ cells",[7],consistent with suppression of the solid tumor microenviroment
same,number of tumors,[7],fewer overall tumors
same,tumor volumes versus vehicle,[7],significant decrease
same,effect on human platelet-mediated thrombus formation,[8],no significant effect
same,in vivo potency at inhibiting expression of activation markers CD69 and CD86,[9],more potent at inhibiting expression of activation makers than Formula (10) (ibrutinib)
same,IC50,"GPVI [10]; read-out: IC50, GPVI platelet aggregation, purified human platelets, Convulxin (CVX)",1150 nM
same,CD8+ T cell function as measured by IFN-γ level,CD8^+ T cells [11],no effect
same,antagonism of rituximab ADCC effects mediated by NK cells,NK cells [12],does not antagonize
"C=CC(=O)N1CCC[C@@H](n2nc(-c3ccc(Oc4ccccc4)cc3)c3c(N)ncnc32)C1 [Formula (10), 1-[(3R)-3-[4-amino-3-(4-phenoxyphenyl)-1H-pyrazolo[3,4-d]pyrimidin-1-yl]piperidin-1-yl]prop-2-en-1-one, reference compound]",EC50,B cell receptor,6.1 nM
same,maximum tolerated dose (MTD),[13],No maximum tolerated dose (MTD) was apparent
same,CD8+ T cell function as measured by % cytotoxicity,CD8^+ T cells [6],affects CD8^+ T cell function
same,inhibition of GPVI platelet aggregation,"GPVI [10]; human platelets, CVX-induced",significantly inhibits
same,CD8+ T cell function as measured by IFN-γ level,CD8^+ T cells [11],affects CD8^+ T cell function
same,antagonism of rituximab ADCC effects mediated by NK cells,NK cells [12],undesirably antagonizes
"C=CC(=O)Nc1cccc(Nc2nc(Nc3ccc(OCCOC)cc3)ncc2F)c1 [Formula (17), N-(3-((5-fluoro-2-((4-(2-methoxyethoxy)phenyl)amino)pyrimidin-4-yl)amino)phenyl)acrylamide, reference compound]",EC50,B cell receptor,121 nM
same,effect on human platelet-mediated thrombus formation,[8],effect similar to Formula (10) (ibrutinib)

# From patent US11154554B2, “Therapeutic combinations of a MEK inhibitor and a BTK inhibitor” (Acerta Pharma B.V., priority 2015, dated 2021)
